Publication PMC9518264, “Design and synthesis of novel quinazolinone-based derivatives as EGFR inhibitors with antitumor activity” (Journal of Enzyme Inhibition and Medicinal Chemistry, 2022)

How the values were obtained:
[1] = test system: CCRF-CEM; experiment: cells; assay type: cell-based; details: Homo sapiens, read-out: growth inhibition % (GI%)
[2] = test system: SR; experiment: cells; assay type: cell-based; details: Homo sapiens, read-out: growth inhibition % (GI%)
[3] = test system: UACC-62; experiment: cells; assay type: cell-based; details: Homo sapiens, UACC-62, read-out: growth inhibition % (GI%)
[4] = test system: UACC-257; experiment: cells; assay type: cell-based; details: Homo sapiens, UACC-257, read-out: growth inhibition % (GI%)
[5] = test system: SK-MEL-2; experiment: cells; assay type: cell-based; details: Homo sapiens, SK-MEL-2, read-out: growth inhibition % (GI%)
[6] = test system: OVCAR-4; experiment: cells; assay type: cell-based; details: Homo sapiens, OVCAR-4, read-out: growth inhibition % (GI%)
[7] = test system: HOP-62; experiment: cells; assay type: cell-based; details: Homo sapiens, HOP-62, read-out: growth inhibition % (GI%)
[8] = test system: BT-549; experiment: cells; assay type: cell-based; details: Homo sapiens, BT-549, read-out: growth inhibition % (GI%)
[9] = test system: SF-539; experiment: cells; assay type: cell-based; details: Homo sapiens, SF-539, read-out: growth inhibition % (GI%)
[10] = test system: K-562; experiment: cells; assay type: cell-based; details: Homo sapiens, K562, read-out: growth inhibition % (GI%)
[11] = test system: SK-MEL-5; experiment: cells; assay type: cell-based; details: Homo sapiens, SK-MEL-5, read-out: growth inhibition % (GI%)
[12] = test system: MDA-MB-231/ATCC; experiment: NCI 60 cell line antiproliferative screening (SRB), Breast cancer; assay type: cell-based; details: Homo sapiens, MDA-MB-231, read-out: growth inhibition % (GI%)
[13] = test system: NCI-H322M; experiment: cells; assay type: cell-based; details: Homo sapiens, read-out: growth inhibition % (GI%)
[14] = test system: SW-620; experiment: cells; assay type: cell-based; details: Homo sapiens, SW-620, read-out: growth inhibition % (GI%)
[15] = test system: HCC-2998; experiment: cells; assay type: cell-based; details: Homo sapiens, HCC 2998, read-out: growth inhibition % (GI%)
[16] = test system: T-47D; experiment: cells; assay type: cell-based; details: Homo sapiens, T47D, read-out: growth inhibition % (GI%)
[17] = test system: A498; experiment: cells; assay type: cell-based; details: Homo sapiens, A498, read-out: growth inhibition % (GI%)
[18] = test system: UO-31; experiment: cells; assay type: cell-based; details: Homo sapiens, UO-31, read-out: growth inhibition % (GI%)
[19] = test system: OVCAR-5; experiment: cells; assay type: cell-based; details: Homo sapiens, OVCAR-5, read-out: growth inhibition % (GI%)
[20] = test system: TK-10; experiment: cells; assay type: cell-based; details: Homo sapiens, TK-10, read-out: growth inhibition % (GI%)
[21] = test system: MDA-MB-468; experiment: NCI 60 cell line antiproliferative screening (SRB), Breast cancer; details: Homo sapiens, MDA-MB-468, read-out: growth inhibition % (GI%)
[22] = test system: 786-0; experiment: cells; assay type: cell-based; details: Homo sapiens, 786-0, read-out: growth inhibition % (GI%)
[23] = test system: NCI-H522; experiment: cells; assay type: cell-based; details: Homo sapiens, NCI-H522, read-out: growth inhibition % (GI%)
[24] = test system: HOP-92; experiment: cells; assay type: cell-based; details: Homo sapiens, HOP-92, read-out: growth inhibition % (GI%)
[25] = test system: SN12C; experiment: cells; assay type: cell-based; details: Homo sapiens, read-out: growth inhibition % (GI%)
[26] = test system: NCI-H226; experiment: cells; assay type: cell-based; details: Homo sapiens, NCI-H226, read-out: growth inhibition % (GI%)
[27] = test system: HT29; experiment: cells; assay type: cell-based; details: Homo sapiens, HT-29, read-out: growth inhibition % (GI%)
[28] = test system: COLO-205; experiment: cells; assay type: cell-based; details: Homo sapiens, COLO 205, read-out: growth inhibition % (GI%)
[29] = test system: SNB-75; experiment: cells; assay type: cell-based; details: Homo sapiens, SNB-75, read-out: growth inhibition % (GI%)
[30] = test system: ACHN; experiment: cells; assay type: cell-based; details: Homo sapiens, read-out: growth inhibition % (GI%)
[31] = test system: EKVX; experiment: cells; assay type: cell-based; details: Homo sapiens, read-out: growth inhibition % (GI%)
[32] = test system: OVCAR-8; experiment: cells; assay type: cell-based; details: Homo sapiens, OVCAR-8, read-out: growth inhibition % (GI%)
[33] = test system: OVCAR-3; experiment: NCI 60 cell line antiproliferative screening (SRB), Ovarian cancer; details: Homo sapiens, OVCAR-3, read-out: growth inhibition % (GI%)
[34] = test system: NCI-H460; experiment: cells; assay type: cell-based; details: Homo sapiens, NCI-H460, read-out: growth inhibition % (GI%)
[35] = test system: HCT-116; experiment: cells; assay type: cell-based; details: Homo sapiens, HCT-116, read-out: growth inhibition % (GI%)
[36] = test system: PC-3; experiment: cells; assay type: cell-based; details: Homo sapiens, PC-3, read-out: growth inhibition % (GI%)
[37] = test system: LOX IMIV; experiment: cells; assay type: cell-based; details: Homo sapiens, 60 cell, read-out: growth inhibition % (GI%)
[38] = test system: IGROV1; experiment: cells; assay type: cell-based; details: Homo sapiens, IGROV-1, read-out: growth inhibition % (GI%)
[39] = test system: SNB-19; experiment: cells; assay type: cell-based; details: Homo sapiens, SNB-19, read-out: growth inhibition % (GI%)
[40] = test system: panel of 60 tumour cell lines; experiment: NCI 60 cell line antiproliferative screening (SRB), whole panel or subpanels (means, ranges, words); assay type: cell-based, human; details: Homo sapiens, 60 cell, mean over the cell line panel; 10 μM; read-out: Mean growth inhibition % (mean GI%)
[41] = test system: NCI/ADR-RES; experiment: cells; assay type: cell-based; details: Homo sapiens, read-out: growth inhibition % (GI%)
[42] = test system: MDA-MB-435; experiment: cells; assay type: cell-based; details: Homo sapiens, MDA-MB-435, read-out: growth inhibition % (GI%)
[43] = test system: SF-268; experiment: cells; assay type: cell-based; details: Homo sapiens, SF-268, read-out: growth inhibition % (GI%)
[44] = test system: RPMI-8226; experiment: cells; assay type: cell-based; details: Homo sapiens, RPMI-8226, read-out: growth inhibition % (GI%)
[45] = test system: SK-OV-3; experiment: cells; assay type: cell-based; details: Homo sapiens, SK-OV-3, read-out: growth inhibition % (GI%)
[46] = test system: SK-MEL-28; experiment: cells; assay type: cell-based; details: Homo sapiens, SK-MEL-28, read-out: growth inhibition % (GI%)

**Q.** For `O=C(CSc1nc2ccccc2c(=O)n1-c1ccccc1)NN=Cc1ccc(Oc2ccc(Br)cc2)cc1` [6b, N'-(4–(4-bromophenoxy)benzylidene)-2-((4-oxo-3-phenyl-3,4-dihydroquinazolin-2-yl)thio) acetohydrazide], which inhibition at 10 µM [1] is on record?
**A.** 43.1%

**Q.** And the inhibition at 10 µM [2]?
**A.** 26.6%

**Q.** What about the inhibition at 10 µM [3] of the same molecule?
**A.** 31.2%

**Q.** And the inhibition at 10 µM [4]?
**A.** < 15%

**Q.** And the inhibition at 10 µM [5]?
**A.** < 15%

**Q.** And the inhibition at 10 µM [6]?
**A.** 18.3%

**Q.** What about the inhibition at 10 µM [7] of the same molecule?
**A.** 36.1%

**Q.** What about the inhibition at 10 µM [8] of the same molecule?
**A.** 26.9%

**Q.** What about the inhibition at 10 µM [9] of the same molecule?
**A.** 31.3%

**Q.** What about the inhibition at 10 µM [10] of the same molecule?
**A.** 37.5%

**Q.** And the inhibition at 10 µM [11]?
**A.** 40.9%

**Q.** What about the inhibition at 10 µM [12] of the same molecule?
**A.** 49.1%

**Q.** And the inhibition at 10 µM [13]?
**A.** < 15%

**Q.** And the inhibition at 10 µM [14]?
**A.** 70.4%

**Q.** And the inhibition at 10 µM [15]?
**A.** < 15%

**Q.** What about the inhibition at 10 µM [16] of the same molecule?
**A.** 17.6%

**Q.** And the inhibition at 10 µM [17]?
**A.** 17.7%

**Q.** And the inhibition at 10 µM [18]?
**A.** < 15%

**Q.** And the inhibition at 10 µM [19]?
**A.** < 15%

**Q.** What about the inhibition at 10 µM [20] of the same molecule?
**A.** < 15%

**Q.** What about the inhibition at 10 µM [21] of the same molecule?
**A.** 34.9%

**Q.** And the inhibition at 10 µM [22]?
**A.** 54%

**Q.** And the inhibition at 10 µM [23]?
**A.** 51.5%

**Q.** What about the inhibition at 10 µM [24] of the same molecule?
**A.** 27%

**Q.** And the inhibition at 10 µM [25]?
**A.** 59.3%

**Q.** What about the inhibition at 10 µM [26] of the same molecule?
**A.** 22.4%

**Q.** What about the inhibition at 10 µM [27] of the same molecule?
**A.** 61.8%

**Q.** What about the inhibition at 10 µM [28] of the same molecule?
**A.** 55.6%

**Q.** And the inhibition at 10 µM [29]?
**A.** 42.2%

**Q.** And the inhibition at 10 µM [30]?
**A.** < 15%

**Q.** And the inhibition at 10 µM [31]?
**A.** 39.3%

**Q.** What about the inhibition at 10 µM [32] of the same molecule?
**A.** 36.7%

**Q.** And the inhibition at 10 µM [33]?
**A.** < 15%

**Q.** What about the inhibition at 10 µM [34] of the same molecule?
**A.** 72%

**Q.** What about the inhibition at 10 µM [35] of the same molecule?
**A.** 92.2%

**Q.** And the inhibition at 10 µM [36]?
**A.** 28.2%

**Q.** What about the inhibition at 10 µM [37] of the same molecule?
**A.** 79%

**Q.** And the inhibition at 10 µM [38]?
**A.** 34.5%

**Q.** And the inhibition at 10 µM [39]?
**A.** 60.1%

**Q.** And the inhibition at 10 µM [40]?
**A.** 34.8%

**Q.** And the inhibition at 10 µM [41]?
**A.** 44.8%

**Q.** What about the inhibition at 10 µM [42] of the same molecule?
**A.** 19.2%

**Q.** What about the inhibition at 10 µM [43] of the same molecule?
**A.** 15.7%

**Q.** And the inhibition at 10 µM [44]?
**A.** 31.7%

**Q.** What about the inhibition at 10 µM [45] of the same molecule?
**A.** 15.5%

**Q.** What about the inhibition at 10 µM [46] of the same molecule?
**A.** 29.1%
